Assay results from ChEMBL document CHEMBL6103582, “Computer-aided discovery of novel AMPK activators through virtual screening and SAR-driven synthesis” (Eur J Med Chem, 2025).
Active and inactive are the calls of the source. No cut-off for these calls is given here.

test system: N2a-APPswe; assay: Activation of AMPK in mouse N2a-APPswe cells assessed as increase in phosphorylated ACC at Ser79 at 10 uM measured after 3 hrs by Western blot analysis; format: cell-based; conditions: filed as activator

SMILES | Activity
COc1ccc(OC)c(/C=C/C(=O)c2ccc(NS(=O)(=O)c3ccc(Cl)cc3)cc2)c1 | Active

test system: N2a-APPswe; assay: Activation of AMPK in mouse N2a-APPswe cells assessed as increase in phosphorylation by measuring pACC/ACC ratio at 10 uM measured after 24 hrs by Western blot analysis; format: cell-based; conditions: filed as activator

SMILES | fold change (FC)
Cc1ccc(CCC(=O)Nc2ccc3c(c2)CN(C(=O)CCn2cnnn2)CC3)cc1 | > 1
CCOC(=O)N1CCN(C(=O)c2ccc(N3CCC(NCCn4nc(C)cc4C)CC3)cc2)CC1 | > 1
O=C(O)C1CCCN(C(=O)Cn2nc(-c3ccc4ccccc4c3)ccc2=O)C1 (centres undefined) | > 1
Cc1ccc(C)c(Oc2coc3cc(OC(=O)c4cccc(Br)c4)ccc3c2=O)c1 | > 1
Cc1cc(-c2cc3c(n(Cc4cccnc4)c2=O)CCN(C(=O)c2ccc4c(c2)OCO4)C3)ccc1F | > 1
NC(=O)c1ncn([C@@H]2O[C@H](CO)[C@@H](O)[C@H]2O)c1N | > 1
Cc1ccccc1-c1noc(CCC(=O)NC(C)c2ccccc2-n2cccn2)n1 (centres undefined) | > 1
O=C(CCn1cnnn1)N1CCCC(N2CCN(c3cccc(C(F)(F)F)c3)CC2)C1 (centres undefined) | > 1
Cn1ccnc1CNC(=O)CCc1nnc(-c2ccc(-c3ccccc3)cc2)o1 | > 1
Cc1ccc(NCc2ccc(C(=O)N3CCC(C(=O)O)CC3)cc2)cc1 | > 1
N#CC1C(=O)Nc2scc(-c3ccc(-c4ccccc4O)cc3)c2C1=O (centres undefined) | > 1
COc1ccc(OC)c(C(=O)c2ccc(C(=O)N3CCc4c(cnc(C)c4CNC(C)=O)C3)cc2)c1 | > 1
COCCN1C(=O)N(Cc2cccnc2)C(=O)C12CCN(Cc1nc(-c3ccccc3)cs1)CC2 | < 1
CCOC(=O)c1nn(CCCc2ccccc2)c2c1CN(C(=O)Cn1nc3ccccc3n1)CC2 | > 1
CN1[C@@H](c2ccccc2)[C@@H](C(=O)NCCn2ccnc2)C[C@@]1(C)C(=O)O | > 1

test system: N2a-APPswe; assay: Activation of AMPK in mouse N2a-APPswe cells assessed as increase in phosphorylated Raptor at Ser792 at 10 uM measured after 3 hrs by Western blot analysis; format: cell-based; conditions: filed as activator

SMILES | Activity
COc1ccc(OC)c(/C=C/C(=O)c2ccc(NS(=O)(=O)c3ccc(Cl)cc3)cc2)c1 | Active

test system: N2a-APPswe; assay: Activation of AMPK in mouse N2a-APPswe cells assessed as increase in phosphorylated AMPK at Thr172 at 10 uM measured after 3 hrs by Western blot analysis; format: cell-based; conditions: filed as activator

SMILES | Activity
COc1ccc(OC)c(/C=C/C(=O)c2ccc(NS(=O)(=O)c3ccc(Cl)cc3)cc2)c1 | Active

test system: AMPK; assay: Activation of AMPK gamma (unknown origin) assessed as increase in phosphorylation of SAMS peptide by measuring fold change at 10 uM measured after 30 mins by ADP-Glo assay; conditions: Homo sapiens, filed as activator

SMILES | fold change (FC)
COc1ccc(/C=C/C(=O)c2cccc(NS(=O)(=O)c3ccc(Cl)cc3)c2)cc1 | 1.82
COc1ccc(OC)c(/C=C/C(=O)c2ccc(NS(=O)(=O)c3ccc(Cl)cc3)cc2)c1 | 2.45
COc1ccc(OC)c(/C=C/C(=O)c2ccc(N)cc2)c1 | 1.93
COc1ccc(OC)c(/C=C/C(=O)c2cccc(N)c2)c1 | 2.62
CN1CCN(c2ccc(C(=O)/C=C/c3ccc(O)cc3)cc2)CC1 | 1.52
COc1ccc(OC)c(/C=C/C(=O)c2cccc(NS(=O)(=O)c3ccc(Cl)cc3)c2)c1 | 1.94
COc1cc(O)ccc1/C=C/C(=O)c1cccc(N)c1 | 1.73
COc1cc(O)ccc1/C=C/C(=O)c1ccc(N2CCNCC2)cc1 | 1.51
O=C(/C=C/c1ccc(N2CCCCC2)cc1)c1ccc(O)cc1 | 2.96
O=C(/C=C/c1ccc(N2CCCCC2)cc1)c1ccc(O)cc1O | 2.48
COc1ccc(/C=C/C(=O)c2cccc(N)c2)cc1 | 2.3
COc1ccc(OC)c(/C=C/C(=O)c2cccc(N(S(=O)(=O)c3ccc(Cl)cc3)S(=O)(=O)c3ccc(Cl)cc3)c2)c1 | 2.53
Nc1cccc(C(=O)/C=C/c2ccc(N3CCCCC3)cc2)c1 | 2.05
Nc1ccc(C(=O)/C=C/c2ccc(N3CCCCC3)cc2)cc1 | 2.16

test system: N2a-APPswe; assay: Activation of AMPK in mouse N2a APPswe cells assessed as increase in phosphorylation by measuring pAMPK/AMPK ratio at 10 uM measured after 24 hrs by Western blot analysis; format: cell-based; conditions: filed as activator

SMILES | fold change (FC)
Cc1ccc(C)c(Oc2coc3cc(OCCc4ccccc4)ccc3c2=O)c1 | > 1
Cc1ccc(CCC(=O)Nc2ccc3c(c2)CN(C(=O)CCn2cnnn2)CC3)cc1 | > 1
CCOC(=O)N1CCN(C(=O)c2ccc(N3CCC(NCCn4nc(C)cc4C)CC3)cc2)CC1 | > 1
O=C(O)C1CCCN(C(=O)Cn2nc(-c3ccc4ccccc4c3)ccc2=O)C1 (centres undefined) | > 1
COc1ccc2c(=O)c(Oc3cc(C)ccc3C)coc2c1 | > 1
Cc1ccc(C)c(Oc2coc3cc(OC(=O)c4cccc(Br)c4)ccc3c2=O)c1 | > 1
Cc1ccc(C)c(Oc2coc3cc(OC(=O)c4ccc(-c5ccccc5)cc4)ccc3c2=O)c1 | > 1
Cc1cc(-c2cc3c(n(Cc4cccnc4)c2=O)CCN(C(=O)c2ccc4c(c2)OCO4)C3)ccc1F | > 1
NC(=O)c1ncn([C@@H]2O[C@H](CO)[C@@H](O)[C@H]2O)c1N | > 1
Cc1ccccc1-c1noc(CCC(=O)NC(C)c2ccccc2-n2cccn2)n1 (centres undefined) | > 1
Cc1ccc(C)c(Oc2coc3cc(OCC(=O)OC4CCCCC4)ccc3c2=O)c1 | > 1
O=C(CCn1cnnn1)N1CCCC(N2CCN(c3cccc(C(F)(F)F)c3)CC2)C1 (centres undefined) | > 1
Cn1ccnc1CNC(=O)CCc1nnc(-c2ccc(-c3ccccc3)cc2)o1 | > 1
Cc1ccc(NCc2ccc(C(=O)N3CCC(C(=O)O)CC3)cc2)cc1 | > 1
N#CC1C(=O)Nc2scc(-c3ccc(-c4ccccc4O)cc3)c2C1=O (centres undefined) | > 1
COc1ccc(OC)c(C(=O)c2ccc(C(=O)N3CCc4c(cnc(C)c4CNC(C)=O)C3)cc2)c1 | > 1
COCCN1C(=O)N(Cc2cccnc2)C(=O)C12CCN(Cc1nc(-c3ccccc3)cs1)CC2 | > 1
CCOC(=O)c1nn(CCCc2ccccc2)c2c1CN(C(=O)Cn1nc3ccccc3n1)CC2 | > 1
Cc1ccc(C)c(Oc2coc3cc(OCc4ccc(Cl)cc4Cl)ccc3c2=O)c1 | > 1
Cc1ccc(C)c(Oc2coc3cc(OCc4ccc(F)cc4)ccc3c2=O)c1 | > 1
Cc1ccc(C)c(Oc2coc3cc(OCC(=O)OCC(C)C)ccc3c2=O)c1 | > 1
CN1[C@@H](c2ccccc2)[C@@H](C(=O)NCCn2ccnc2)C[C@@]1(C)C(=O)O | > 1
Cc1cc(C)c(C)c(Oc2coc3cc(OC(=O)C(C)N4C(=O)c5ccccc5C4=O)ccc3c2=O)c1 (centres undefined) | > 1
CCOCCOC(=O)COc1ccc2c(=O)c(Oc3cc(C)ccc3C)coc2c1 | > 1

test system: N2a-APPswe; assay: Activation of AMPK in mouse N2a-APPswe cells assessed as increase in phosphorylation by measuring pAMPK/AMPK ratio at 5 uM measured after 24 hrs by Western blot analysis; format: cell-based; conditions: filed as activator

SMILES | fold change (FC)
COc1ccc(OC)c(/C=C/C(=O)c2ccc(NS(=O)(=O)c3ccc(Cl)cc3)cc2)c1 | > 1
COc1ccc(OC)c(/C=C/C(=O)c2cccc(N)c2)c1 | > 1
N#CC1C(=O)Nc2scc(-c3ccc(-c4ccccc4O)cc3)c2C1=O (centres undefined) | > 1
O=C(/C=C/c1ccc(N2CCCCC2)cc1)c1ccc(O)cc1 | > 1
O=C(/C=C/c1ccc(N2CCCCC2)cc1)c1ccc(O)cc1O | > 1
COc1ccc(/C=C/C(=O)c2cccc(N)c2)cc1 | > 1
COc1ccc(OC)c(/C=C/C(=O)c2cccc(N(S(=O)(=O)c3ccc(Cl)cc3)S(=O)(=O)c3ccc(Cl)cc3)c2)c1 | > 1
Nc1cccc(C(=O)/C=C/c2ccc(N3CCCCC3)cc2)c1 | > 1
Nc1ccc(C(=O)/C=C/c2ccc(N3CCCCC3)cc2)cc1 | > 1

test system: not listed separately; assay: Cytotoxicity against mouse N2a-APPswe cells assessed as cell viability at 5 uM measured after 24 hrs by WST-1 assay; format: toxicity, cell-based; conditions: not given

SMILES | Activity
COc1ccc(OC)c(/C=C/C(=O)c2ccc(NS(=O)(=O)c3ccc(Cl)cc3)cc2)c1 | Non-toxic
COc1ccc(OC)c(/C=C/C(=O)c2cccc(N)c2)c1 | Non-toxic
O=C(/C=C/c1ccc(N2CCCCC2)cc1)c1ccc(O)cc1 | Non-toxic
O=C(/C=C/c1ccc(N2CCCCC2)cc1)c1ccc(O)cc1O | Non-toxic
COc1ccc(/C=C/C(=O)c2cccc(N)c2)cc1 | Non-toxic
COc1ccc(OC)c(/C=C/C(=O)c2cccc(N(S(=O)(=O)c3ccc(Cl)cc3)S(=O)(=O)c3ccc(Cl)cc3)c2)c1 | Non-toxic
COc1ccc(/C=C/C(=O)c2ccc(N)cc2)c(OC)c1 | Non-toxic
Nc1cccc(C(=O)/C=C/c2ccc(N3CCCCC3)cc2)c1 | Non-toxic
Nc1ccc(C(=O)/C=C/c2ccc(N3CCCCC3)cc2)cc1 | Non-toxic
